Measured values: patent US5411733A (priority 1992, dated 1995)
“And” between values parts separate entries of the source, which are not always exact repeats. Equal values may be shown once. Read-outs that look alike come from different tables or passages of the source.

What was measured:
[1] = Acv concentration in guinea pig blood; format: in vivo; details: for concentration at 1 h: serum, 200 mg, one hour
Method: An Acv suspension or a mixture of Acv and an extract solution of Cryt. f.# was orally or intragastrointestinally administered to a guinea pig. One hour from the administration, blood was taken from the heart, and an inactivated serum was prepared therefrom in the same manner as in Test Example 9.
(§1) To a 100 μl aliquot of the serum were added 100 μl of acetonitrile and 20 μl of a 100 mM sodium acetate solution, and the mixture was centrifuged (10000 rpm×10 mins.).
(§2) The sample solution was separated into Acv and adenine by reverse phase liquid chromatography in a usual manner. Each peak area was measured with an automatic integrator, and the Acv content was obtained from the previously prepared calibration curve.

[2] = Acv level in mouse blood (p.o.); format: in vivo, DDY male mouse
Method: as §1, §2
Further, 0.5 ml of an Acv preparation or 0.5 ml of a mixture of Acv and a varied concentration of Cryt. f.# extract solution was orally administered to a 6-week-old DDY male mouse, and the Acv concentration in blood was measured in the same manner as described above. […] Accordingly, the Cryt. f.# extract solution is believed to have antiherpesviral activity by itself.

[3] = system: Herpes simplex virus type I (Seibert strain); experiment: microbe, parasite or virus in culture; format: cell-based; details: read-out: Plaque Formation Efficiency, Acv
[4] = lung; cited from earlier work

**Q.** With `Nc1nc2c(ncn2COCCO)c(=O)[nH]1` [Acyclovir, acyclovir] as the molecule, how does the “effect of Cryt. f.# on Acv absorption” value ([1]; Table 12) read?
**A.** The value was “it is not recognized that the Acv absorption was accelerated”.

**Q.** What about the concentration at 1 h ([1]; Acv (200 mg) + 1 mg/ml of Cryt. f.#, individual samples, read-out: Acv Concentration in Blood) of the same molecule?
**A.** Its concentration at 1 h is 76400 nM.

**Q.** What about the concentration at 1 h ([1]; Acv (200 mg) + 1 mg/ml of Cryt. f.#, read-out: Acv Concentration in Blood, Mean ± σ) of the same molecule?
**A.** The concentration at 1 h was 92900 ± 31900 nM.

**Q.** What about the concentration at 1 h ([1]; Acv (200 mg) + 5 mg/ml of Cryt. f.#, individual samples, read-out: Acv Concentration in Blood) of the same molecule?
**A.** Its concentration at 1 h is 92900 nM.

**Q.** And the concentration at 1 h ([1]; Acv (200 mg) + 5 mg/ml of Cryt. f.#, read-out: Acv Concentration in Blood, Mean ± σ)?
**A.** The concentration at 1 h was 88300 ± 17400 nM.

**Q.** What about the concentration at 1 h ([1]; Acv (200 mg) + 20 mg/ml of Cryt. f.#, read-out: Acv Concentration in Blood, Mean ± σ) of the same molecule?
**A.** The concentration at 1 h was 72200 ± 70400 nM.

**Q.** And the concentration at 1 h ([1]; Acv (200 mg), read-out: Acv Concentration in Blood, Mean ± σ)?
**A.** The concentration at 1 h was 88600 ± 85600 nM.

**Q.** What about the concentration ([2]; Acv (10 mg/kg) p.o., read-out: Acv Blood Level, Mean ± σ) of the same molecule?
**A.** The concentration was 2280 ± 1490 nM.

**Q.** What about the concentration ([2]; Acv (100 mg/kg) + 2 mg/ml of Cryt. f.#, p.o., individual samples, listed as Acv, 100 mg/kg, read-out: Acv Blood Level) of the same molecule?
**A.** Its concentration is 1700 nM and 1400 nM and 1600 nM and 2500 nM and 4700 nM and 2900 nM and 2000 nM and 2400 nM and 9500 nM and 2300 nM.

**Q.** And the concentration ([2]; Acv (100 mg/kg) + 2 mg/ml of Cryt. f.#, p.o., read-out: Acv Blood Level, Mean ± σ)?
**A.** The concentration was 3100 ± 2430 nM.

**Q.** What about the concentration ([2]; Acv (100 mg/kg) + 10 mg/ml of Cryt. f.#, p.o., individual samples, listed as Acv, 100 mg/kg, read-out: Acv Blood Level) of the same molecule?
**A.** Its concentration is 2300 nM and 1100 nM and 3500 nM and 1600 nM and 1900 nM and 2600 nM and 1500 nM and 5200 nM.

**Q.** And the concentration ([2]; Acv (100 mg/kg) + 10 mg/ml of Cryt. f.#, p.o., read-out: Acv Blood Level, Mean ± σ)?
**A.** The concentration was 2460 ± 1330 nM.

**Q.** And the concentration ([2]; Acv (100 mg/kg) + 20 mg/ml of Cryt. f.#, p.o., read-out: Acv Blood Level, Mean ± σ)?
**A.** The concentration was 2590 ± 1530 nM.

**Q.** What about the “effect of Cryt. f.# on Acv concentration in blood” value ([2]; mouse, Table 13) of the same molecule?
**A.** The value was “no increase in Acv concentration in blood was observed”.

**Q.** What about the activity at 0.35 µg/mL [3] of the same molecule?
**A.** The activity at 0.35 µg/mL was 53.6%.

**Q.** For `C=CC[C@@H]1/C=C(\C)C[C@H](C)C[C@H](OC)[C@H]2O[C@@](O)(C(=O)C(=O)N3CCCC[C@H]3C(=O)O[C@H](/C(C)=C/[C@@H]3CC[C@@H](O)[C@H](OC)C3)[C@H](C)[C@@H](O)CC1=O)[C@H](C)C[C@@H]2OC` [FK 506], which distribution [4] is on record?
**A.** Its distribution is “concentrated in the lung”.
